Laboratory results: article PMC12615753, “Glutathione as a taste modulator: molecular mechanisms of interaction with umami and sweet taste receptors” (Food Chemistry: Molecular Sciences, 2025)

Biological target: T1, hTAS1R1/rTAS1R3(Mut2) (UniProt Q7RTX1+Q923K1, L72W/P67S/S282A/Y281H)
T1 sequence (Q7RTX1 21-841): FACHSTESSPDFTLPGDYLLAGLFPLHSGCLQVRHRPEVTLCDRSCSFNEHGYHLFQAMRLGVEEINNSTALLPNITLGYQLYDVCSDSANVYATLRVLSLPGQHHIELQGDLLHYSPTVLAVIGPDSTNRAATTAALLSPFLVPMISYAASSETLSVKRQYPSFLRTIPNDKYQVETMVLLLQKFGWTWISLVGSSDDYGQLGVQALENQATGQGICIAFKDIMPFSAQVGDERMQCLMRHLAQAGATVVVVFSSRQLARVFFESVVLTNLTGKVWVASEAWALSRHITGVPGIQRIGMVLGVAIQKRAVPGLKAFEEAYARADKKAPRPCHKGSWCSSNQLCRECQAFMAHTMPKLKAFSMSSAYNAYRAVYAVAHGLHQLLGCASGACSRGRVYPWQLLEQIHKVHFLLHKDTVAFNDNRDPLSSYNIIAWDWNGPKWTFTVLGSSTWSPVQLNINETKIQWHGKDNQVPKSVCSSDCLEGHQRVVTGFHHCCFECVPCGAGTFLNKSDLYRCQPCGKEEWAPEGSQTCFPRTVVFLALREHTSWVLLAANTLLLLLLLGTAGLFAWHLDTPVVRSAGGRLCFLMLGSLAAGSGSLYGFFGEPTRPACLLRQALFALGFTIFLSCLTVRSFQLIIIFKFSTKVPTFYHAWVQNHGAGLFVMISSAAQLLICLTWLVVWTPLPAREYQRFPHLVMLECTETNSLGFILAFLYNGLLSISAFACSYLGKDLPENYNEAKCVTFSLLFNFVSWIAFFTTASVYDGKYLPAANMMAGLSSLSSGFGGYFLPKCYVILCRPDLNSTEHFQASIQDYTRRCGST
T1 sequence (Q923K1 21-858 P67S/L72W/Y281H/S282A): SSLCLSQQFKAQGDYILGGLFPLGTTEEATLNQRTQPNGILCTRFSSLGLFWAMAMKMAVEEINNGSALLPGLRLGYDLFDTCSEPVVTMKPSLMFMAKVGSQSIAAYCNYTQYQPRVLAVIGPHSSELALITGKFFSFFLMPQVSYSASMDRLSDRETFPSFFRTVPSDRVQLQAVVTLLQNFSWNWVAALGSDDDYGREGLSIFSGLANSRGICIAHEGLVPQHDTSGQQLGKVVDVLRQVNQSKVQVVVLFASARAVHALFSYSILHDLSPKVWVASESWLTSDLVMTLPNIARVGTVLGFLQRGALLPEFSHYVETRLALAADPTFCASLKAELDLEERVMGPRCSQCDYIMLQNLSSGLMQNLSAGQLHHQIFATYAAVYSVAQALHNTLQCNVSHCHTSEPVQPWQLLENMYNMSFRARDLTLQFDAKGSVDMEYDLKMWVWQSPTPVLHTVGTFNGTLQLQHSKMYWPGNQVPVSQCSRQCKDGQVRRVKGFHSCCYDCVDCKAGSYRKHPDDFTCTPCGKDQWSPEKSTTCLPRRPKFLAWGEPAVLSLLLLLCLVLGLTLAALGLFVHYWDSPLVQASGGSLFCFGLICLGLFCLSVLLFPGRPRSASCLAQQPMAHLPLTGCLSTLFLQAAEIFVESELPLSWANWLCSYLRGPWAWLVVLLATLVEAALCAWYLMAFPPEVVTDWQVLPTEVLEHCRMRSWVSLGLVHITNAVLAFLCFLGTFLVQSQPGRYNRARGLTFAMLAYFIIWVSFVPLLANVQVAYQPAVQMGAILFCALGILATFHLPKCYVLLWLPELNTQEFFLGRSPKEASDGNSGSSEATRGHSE
Test: Calcium assay, mutated rTAS1R3 co-expressed with hTAS1R1
Details: for response to the agonist alone: Mut2
Description: HEK293T/17 cells (ATCC CRL-11268) were seeded into clear bottom black 96-well plates coated with poly-D-lysine at a density of 32500 cells/well in 100 μL of DMEM containing 4.5 g/L glucose and supplemented with penicillin/streptomycin, 2 mM GlutaMAX and 10 % dialyzed fetal bovine serum. The plates were incubated for 24 h at 37 °C and 7.3 % CO2 in a humidified atmosphere. After incubation, using Fugene® 4 K (0.46 μL/well, Promega, Illkirch, France), the cells were transiently transfected with pcDNA3-hTAS1R1-WT (60 ng/well) or TAS1R1 mutants, pcDNA4-rTAS1R3 (60 ng/well), pcDNA3-Gα15i2 (10 ng/well), and pGP-CMV-GCaMP6s (Addgene #40753; 10 ng/well) as a genetically encoded calcium indicator. Twenty-four hours after transfection, the HEK293T/17 cells were rinsed with 100 μL of C1 buffer (130 mM NaCl, 5 mM KCl, 10 mM HEPES, 2 mM CaCl2, and 5 mM sodium pyruvate, pH 7.4). For each molecule tested, a semi-logarithmic concentration range was created consisting of seven increasing concentrations and a negative control (zero dose) made of buffer C1. Binary mixtures with different molecules were also made to study potential synergy. In this case, the concentration range was tested in C1 buffer containing the other molecules to be tested. The concentration ranges varied depending on the molecule, its solubility, and its effectiveness in activating the receptor. All the solutions were made on the day of the test to prevent any oxidation of the compounds. If needed, the pH of each solution was adjusted by to pH 7.4 by adding NaOH. After 20 s of basal fluorescence calcium measurement, the cells were stimulated via automatic injection of a range of compounds in eight wells, and the signal emission was recorded for an additional 70 s, via a FlexStation 3® fluorometric microplate reader (Molecular Devices, San Jose, CA, USA). As a control, molecules were also tested on mock-transfected cells with the empty vector. The emitted fluorescence was measured at a wavelength of 510 nm after excitation at 488 nm. Each measurement was performed in duplicate on the same plate, and the experiments were carried out at least four times. Kinetic data were acquired via SoftMax Pro 5.4.6 software (Molecular Devices). For each well, the decrease in the raw fluorescence as the relative fluorescence changed was calculated as ΔF/F0. Replicates were averaged for the wells subjected to the same stimuli, the background signal was subtracted, and the fluorescence changes in mock-transfected cells were subtracted. The half-maximal effective concentration (EC50) and maximal signal amplitude (max ∆F/F0) were calculated via non-linear regression of the sigmoidal function four-parameter logistic equation [f(x) = min + (max − min)/(1 + (x/EC50)^nH)] via SigmaPlot 15.0 software (Grafiti LLC, Palo Alto, CA, USA). […] For a clearer understanding of the results, the amplitude values in certain dose-response curves were normalized to max ∆F/F0 = 1, to eliminate the differences in amplitude.
We also selected other residues surrounding the cavity that differed from species to species and were not directly involved in ligand binding but rather in dynamic phenomena resulting in signal transmission, namely, four residues located less deep in the binding cavity that we mutated to their human counterparts (Y281H, S282A, P67S, L72W) (Mut2) (Fig. S3).

SMILES | EC50 | response to the agonist alone
CCCC(CCC)NC(=O)c1ccc2c(c1)OCO2 [S807, N-(heptan-4-yl)benzo[d][1,3]dioxole-5-carboxamide, reference compound] | 1.59 ± 0.27 µM | severely impaired
N[C@@H](CCC(=O)N[C@@H](CS)C(=O)NCC(=O)O)C(=O)O [GSH, γ-L-glutamyl-L-cysteinyl-glycine] | 1220 ± 488 µM | abolished
N[C@@H](CCC(=O)O)C(=O)O [L-Glu, L-glutamic acid, reference compound] | – | abolished
